This note sets out measurements from publication doi:10.1101/2022.04.25.489410v1 (biorxiv, 2022).

Holding throughout (format): biochemical, uncultured bacterium
Assay [1] has as its system SN243. Briefly: fluorescence, initial rates, Michaelis-Menten fit. Conditions: 100 mM Tris pH 8.0, 150 mM NaCl, 25 °C.
Assay [2] deals with SN243. Briefly: product inhibition of pNP-β-GlcA hydrolysis. Conditions: 10 μM pNP-β-GlcA; 100 mM Tris pH 8.0, 150 mM NaCl, 25 °C.
For assay [3], the system named is SN243. Put plainly: absorbance at […] nm, initial rates, Michaelis-Menten fit. The note with it: 100 mM Tris pH 8.0, 150 mM NaCl, 25 °C.

As to `O=C1OC2(c3ccc(O[C@@H]4O[C@H](C(=O)O)[C@@H](O)[C@H](O)[C@H]4O)cc3Oc3cc(O[C@@H]4O[C@H](C(=O)O)[C@@H](O)[C@H](O)[C@H]4O)ccc32)c2ccccc21` [FD-β-GlcA], the Michaelis-Menten constant (Km) in the assay with SN243 [1] was determined as 0.008 mM. `O=C(O)[C@H]1OC(O)[C@H](O)[C@@H](O)[C@@H]1O` (some centres unmarked) [GlcA] gave an IC50 in the assay with SN243 [2] of 179 µM. As for `O=C(O)[C@H]1O[C@@H](Oc2ccc([N+](=O)[O-])cc2)[C@H](O)[C@@H](O)[C@@H]1O` [pNP-β-GlcA], in the assay with SN243 [3], the Km was found to be 0.0137 mM. As to `O=[N+]([O-])c1ccc(O[C@@H]2O[C@H](CO)[C@@H](O)[C@H](O)[C@H]2O)cc1` [pNP-β-Glc], the Michaelis-Menten constant (Km) with SN243 [3] worked out at 56.5 ± 4.1 mM. For the compound `O=[N+]([O-])c1ccc(O[C@@H]2OC[C@@H](O)[C@H](O)[C@H]2O)cc1` [pNP-β-Xyl], the Km with SN243 [3] stood at 23 ± 0.9 mM.

As a reminder, the Km is the concentration of substrate that gives half-maximal velocity. The term IC50 denotes the concentration needed to halve the response being measured. Read a low IC50 as higher potency.
